Data as given in publication PMC8515607 (ACS Omega, 2021).
Read-outs that look alike come from different tables or passages of the source.

Tests used:
[1] = test system: A549; assay: cells; type: cell-based, human; conditions: for IC50: Homo sapiens, A549, 72 h, read-out: A549 IC50 (nM), 72 h exposure, SRB, mean ± SD; for A549 SI: selectivity index = IC50 BALB/3T3 / IC50 A549
Source text: (§1) The A549 and MCF7 cell lines were purchased from the European Collection of Authenticated Cell Cultures (ECACC, Salisbury, U.K., 86012804 and 86012803). The LoVo cell line was purchased from the American Type Culture Collection (CCL-229, ATCC, Manassas, VA), and LoVo/DX by courtesy of Prof. E. Borowski (Technical University of Gdańsk, Gdańsk, Poland). The BALB/3T3 cell line was purchased from the American Type Culture Collection (CCL-163, ATCC, Manassas, VA). All of the cell lines are maintained in the Institute of Immunology and Experimental Therapy (IIET), Wroclaw, Poland.
(§2) A549 cells were cultured in a mixture of OptiMEM and Roswell Park Memorial Institute (RPMI) 1640 (1:1) medium (IIET, Wroclaw, Poland), supplemented with 10% fetal bovine serum HyClone (GE Healthcare) and 2 mM L-glutamine (Sigma-Aldrich, Germany). MCF7 cells were cultured in a mixture of Eagle’s medium (IIET, Wroclaw, Poland), supplemented with 10% fetal bovine serum, 2 mM L-glutamine, and insulin (Sigma-Aldrich, Germany). LoVo and LoVo/DX cells were cultured in F12K medium (Corning), supplemented with 10% fetal bovine serum HyClone (GE Healthcare) and 0.1 μg/mL doxorubicin (Accord) for LoVo/DX. BALB/3T3 fibroblasts were cultured in Dulbecco’s medium (Gibco), supplemented with 10% fetal bovine serum (GE Healthcare) and 2 mM L-glutamine (Sigma-Aldrich, Germany). All culture media contained antibiotics: 100 U/mL penicillin (Polfa-Tarchomin, Poland) and 0.1 mg/mL streptomycin (Sigma-Aldrich, Germany). All cell lines were cultured during entire experiment in humid atmosphere at 37 °C and 5% CO2.
(§3) All cell lines were exposed to each tested agent at different concentrations in the range 100–0.00001 μg/mL for 72 h. The cells were also exposed to the reference drug cisplatin (Teva Pharmaceuticals, Poland) and doxorubicin (Accord Healthcare Limited, U.K.). Additionally, all cell lines were exposed to dimethyl sulfoxide (DMSO) (solvent used for tested compounds) (POCh, Poland) at concentrations corresponding to those present in tested agents dilutions. After 72 h, sulforhodamine B (SRB) assay was performed.[57]
(§4) After 72 h of incubation with the tested compounds, the cells were fixed in situ by gently adding cold 50% trichloroacetic acid (TCA) (POCh, Poland) and were incubated at room temperature for 1 h. Then, the wells were washed four times with water and air-dried. Next, 0.1% solution of sulforhodamine B (Sigma-Aldrich, Germany) in 1% acetic acid (POCh, Poland) was added to each well and the plates were incubated at room temperature for 0.5 h. After incubation time, unbound dye was removed by washing plates four times with 1% acetic acid, whereas stain bound to cells was solubilized with 10 mM Tris base (Sigma-Aldrich, Germany). Absorbance of each solution was read at Synergy H4 Hybrid Multi-Mode Microplate Reader (BioTek Instruments) at the 540 nm wavelength.
(§5) IC50 values were calculated in Excel sheet using formulas adapted by Mateusz Psurski fromCheburator 0.4, Dmitry Nevozhay software (version 1.2.0 software by Dmitry Nevozhay, 2004–2014, http://www.cheburator.nevozhay.com, freely available) for each experiment.[58] Compounds at each concentration were tested in triplicate in a single experiment, and each experiment was repeated at least three times independently.

[2] = test system: LoVo/DX; assay: cells; type: cell-based, human; conditions: for LoVo/DX RI: resistance index = IC50 LoVo/DX / IC50 LoVo; for LoVo/DX SI: selectivity index = IC50 BALB/3T3 / IC50 LoVo/DX
Source text: as §1, §2, §3, §4, §5

[3] = test system: LoVo; assay: cells; type: cell-based, human; conditions: for IC50: Homo sapiens, LoVo, 72 h, read-out: LoVo IC50 (nM); for LoVo SI: selectivity index = IC50 BALB/3T3 / IC50 LoVo
Source text: as §1, §2, §3, §4, §5

[4] = test system: MCF-7; assay: cells; type: cell-based, human; conditions: for IC50: Homo sapiens, MCF7, 72 h, read-out: MCF-7 IC50 (nM); for MCF-7 SI: selectivity index = IC50 BALB/3T3 / IC50 MCF-7
Source text: as §1, §2, §3, §4, §5

[5] = test system: BALB/3T3; assay: In vitro antiproliferative activity, SRB assay, normal fibroblasts BALB/3T3; type: cell-based; conditions: Mus musculus, BALB/3T3, normal murine embryonic fibroblasts, 72 h, mean ± SD
Source text: as §1, §2, §3, §4, §5

[6] = Homo sapiens, LoVo/DX, 72 h, read-out: LoVo/DX IC50 (nM), 72 h exposure, SRB, mean ± SD
[7] = read-out: LoVo/DX IC50, 72 h exposure, SRB, mean ± SD

Row | SMILES | IC50 [1] [nM] | A549 SI [1] | IC50 [2, 6] [nM] | LoVo/DX RI [2] | LoVo/DX SI [2] | IC50 [3] [nM] | LoVo SI [3] | IC50 [4] [nM] | MCF-7 SI [4] | IC50 [5] [nM] | IC50 [2, 7] [nM]
1 | CNc1ccc2c(cc1=O)[C@@H](NC(C)=O)CCc1cc(OC)c(OC)c(OC)c1-2 [Compound 2, 10-N-methylaminocolchicine] | 4.4 ± 0.6 | 1.4 | 230 ± 17 | 43 | <0.1 | 5.4 ± 0.7 | 1.1 | 3.5 ± 0.7 | 1.7 | 6 ± 2.3 | 
2 | CNc1ccc2c(cc1=O)[C@@H](N)CCc1cc(OC)c(OC)c(OC)c1-2 [Compound 3, N-deacetyl-10-methylamino-10-demethoxycolchicine] | 12 ± 2.3 | 1.3 | 55 ± 13 | 6.2 | 0.3 | 8.9 ± 1.4 | 1.8 | 8.1 ± 1.3 | 2.0 | 16 ± 2.1 | 
3 | CCCc1cn([C@H]2CCc3cc(OC)c(OC)c(OC)c3-c3ccc(NC)c(=O)cc32)nn1 [Compound 6] | 15 ± 3.7 | 1.6 | 85 ± 21 | 6.5 | 0.3 | 13 ± 1.9 | 1.8 | 11 ± 1.2 | 2.2 | 24 ± 9.3 | 
4 | CNc1ccc2c(cc1=O)[C@@H](n1cc(CO)nn1)CCc1cc(OC)c(OC)c(OC)c1-2 [Compound 9] | 12 ± 2.1 | 1.2 | 1500 ± 210 | 140 | <0.1 | 11 ± 5.6 | 1.3 | 6.8 ± 1 | 2.1 | 14 ± 2.1 | 
5 | CNc1ccc2c(cc1=O)[C@@H](n1cc(CCl)nn1)CCc1cc(OC)c(OC)c(OC)c1-2 [Compound 10] | 13 ± 3.3 | 1.0 | 95 ± 24 | 7.9 | 0.1 | 12 ± 2.4 | 1.1 | 8.6 ± 3.2 | 1.5 | 13 ± 3 | 
6 | CNc1ccc2c(cc1=O)[C@@H](n1cc(CCO)nn1)CCc1cc(OC)c(OC)c(OC)c1-2 [Compound 11] | 14 ± 2 | 1.3 | 1700 ± 290 | 120 | <0.1 | 14 ± 6.5 | 1.3 | 13 ± 1.6 | 1.4 | 18 ± 7.1 | 
7 | CNc1ccc2c(cc1=O)[C@@H](n1cc(C(C)(C)O)nn1)CCc1cc(OC)c(OC)c(OC)c1-2 [Compound 12] | 37 ± 4.2 | 1.4 | 2400 ± 550 | 130 | <0.1 | 19 ± 3.9 | 2.6 | 13 ± 3.4 | 3.8 | 50 ± 4.5 | 
8 | CNc1ccc2c(cc1=O)[C@@H](n1cc(C3(O)CCCCC3)nn1)CCc1cc(OC)c(OC)c(OC)c1-2 [Compound 13] | 94 ± 30 | 1.1 | 1700 ± 160 | 26 | 0.1 | 65 ± 33 | 1.5 | 88 ± 50 | 1.1 | 100 ± 33 | 
9 | CNc1ccc2c(cc1=O)[C@@H](n1cc(-c3ccccc3)nn1)CCc1cc(OC)c(OC)c(OC)c1-2 [Compound 14] | 13 ± 2.6 | 1.5 | < 30 | 2.7 | 0.7 | 10 ± 0.8 | 2.0 | 10 ± 1.8 | 2.0 | 20 ± 7.6 | 27 ± 7.6
10 | CNc1ccc2c(cc1=O)[C@@H](n1cc(-c3ccc(Cl)cc3)nn1)CCc1cc(OC)c(OC)c(OC)c1-2 [Compound 15] | 39 ± 2.7 | 2.4 | 150 ± 35 | 3.2 | 0.6 | 47 ± 22 | 2.0 | 35 ± 14 | 2.6 | 92 ± 20 | 
11 | CNc1ccc2c(cc1=O)[C@@H](n1cc(-c3ccccn3)nn1)CCc1cc(OC)c(OC)c(OC)c1-2 [Compound 16] | 35 ± 10 | 1.2 | 210 ± 65 | 7.8 | 0.2 | 27 ± 14 | 1.5 | 28 ± 12 | 1.5 | 41 ± 4 | 
12 | CNc1ccc2c(cc1=O)[C@@H](n1cc(COCc3ccccc3)nn1)CCc1cc(OC)c(OC)c(OC)c1-2 [Compound 17] | 6.9 ± 5.3 | 1.6 | 84 ± 42 | 15 | 0.1 | 5.7 ± 4.9 | 1.9 | 6.1 ± 4.8 | 1.8 | 11 ± 7.8 | 
13 | CNc1ccc2c(cc1=O)[C@@H](n1cc(C(=O)O)nn1)CCc1cc(OC)c(OC)c(OC)c1-2 [Compound 20] | 1300 ± 330 | 1.6 | 3400 ± 890 | 2.8 | 0.6 | 1200 ± 350 | 1.8 | 1200 ± 390 | 1.8 | 2100 ± 750 | 
14 | CNc1ccc2c(cc1=O)[C@@H](n1nnc(C(=O)O)c1C(=O)O)CCc1cc(OC)c(OC)c(OC)c1-2 [Compound 23] | 1000 ± 240 | 1.2 | 2900 ± 390 | 3.4 | 0.4 | 860 ± 190 | 1.4 | 990 ± 82 | 1.2 | 1200 ± 14 | 
15 | CCCCCCCCCCCCCCCC(=O)OCc1cn([C@H]2CCc3cc(OC)c(OC)c(OC)c3-c3ccc(NC)c(=O)cc32)nn1 [Compound 24] | 16 ± 5.2 | 3.4 | 3300 ± 280 | 170 | <0.1 | 19 ± 7 | 2.8 | 11 ± 0.7 | 4.9 | 54 ± 20 | 
16 | CNc1ccc2c(cc1=O)[C@@H](n1cc(COC(=O)CCC(F)(F)F)nn1)CCc1cc(OC)c(OC)c(OC)c1-2 [Compound 25] | 1.3 ± 0.2 | 5.2 | 350 ± 56 | 160 | <0.1 | 2.2 ± 1.2 | 3.0 | 1.1 ± 0.4 | 6.1 | 6.7 ± 2.4 | 
17 | CNc1ccc2c(cc1=O)[C@@H](n1cc(COC(=O)CCNC(=O)OC(C)(C)C)nn1)CCc1cc(OC)c(OC)c(OC)c1-2 [Compound 26] | 2.4 ± 0.7 | 2.7 | 700 ± 120 | 240 | <0.1 | 2.9 ± 1.2 | 2.2 | 1.1 ± 0.1 | 5.8 | 6.4 ± 1.4 | 
18 | CNc1ccc2c(cc1=O)[C@@H](n1cc(COC(=O)c3ccccc3Cl)nn1)CCc1cc(OC)c(OC)c(OC)c1-2 [Compound 27] | 2.9 ± 0.6 | 3.0 | < 100 | 19 | 0.1 | 4.7 ± 1.7 | 1.9 | 2.4 ± 0.8 | 3.6 | 8.7 ± 2 | 89 ± 18
